Where two headings read alike, the source gives them in different places.
How the values were obtained:
hTREK-1 [1] = target: T1, hTREK-1 (Homo sapiens, UniProt O95069)
T1 sequence (O95069 1-422 isoform O95069-3): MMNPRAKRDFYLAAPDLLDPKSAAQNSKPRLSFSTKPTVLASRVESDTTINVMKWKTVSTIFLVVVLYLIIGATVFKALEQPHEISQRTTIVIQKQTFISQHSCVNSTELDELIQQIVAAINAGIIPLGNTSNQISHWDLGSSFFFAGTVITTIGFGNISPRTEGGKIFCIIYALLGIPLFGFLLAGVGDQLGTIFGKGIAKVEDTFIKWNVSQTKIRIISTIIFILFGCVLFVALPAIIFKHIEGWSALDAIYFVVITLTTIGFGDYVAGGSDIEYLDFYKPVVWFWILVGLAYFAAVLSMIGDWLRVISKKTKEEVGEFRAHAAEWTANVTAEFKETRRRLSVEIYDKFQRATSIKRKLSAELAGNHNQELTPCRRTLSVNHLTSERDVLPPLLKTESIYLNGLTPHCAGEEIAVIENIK

naive HEK293 cells = assay: Thallium flux assay on naive (untransfected) HEK293 cells; conditions: 10 µM
Method: Cells were plated in 384-well plates with black walls and clear bottom coated with poly-D-lysine (Greiner Bio-One, Kremsmünster, Austria, #781946) at a density of 25 000 cells/well from a 1 250 000 cells/mL solution. Cell counting was performed with an automatic cell counter (Countness II FL, ThermoFisher, Waltham, MA, USA) with addition of trypan blue 0.2% to exclude dead cells. 24 h after plating, cells were incubated with FluxOR II green probe (ThermoFisher) for 1 h in the dark, accordingly to the supplier’s protocol (‘no wash’ procedure) with addition of 77 mg/mL probenecide. […] Fluorescence was measured every 3 s during 1 min (excitation 485 nm, emission 515 nm), and 0.5 mM thallium was added to the wells after a 20 s baseline. […] Fluorescence is normalized using the formula (F − F0)/F0 where F0 is the average fluorescence during the first 18 s of the recording. ΔFmax/F0 is calculated between 18 and 33 s (−2 to 13 s relative to thallium addition). For dose–response curves, ΔFmax/F0 are expressed as %vehicle (100% corresponding to the average ΔFmax/F0 measured in vehicle-treated wells). For high throughput screening, Z scores were calculated as(1) Z=Xsample−X¯neg/σneg where X represents ΔFmax/F0 and σ the ΔFmax/F0 standard deviation. ‘neg’ represents negative controls (vehicle-treated wells). […]

hTREK-1 [2] = target: T1, hTREK-1; assay: Whole cell patch clamp on HEK-hTREK-1 cells; type: cell-based; design: transfected with the human Kcnk2 (NM_001017424) or Kcnk10 (NM_021161) ORF cloned in a pEZ-M02 expression vector
CD1 mice [3] = assay: Hargreaves test in carrageenan-induced paw inflammation; type: in vivo, mouse
[4] = test system: WT and TREK-1 KO littermates of C57Bl6/J background; assay: Body temperature monitoring (rectal probe); type: in vivo, mouse; conditions: i.p. 40 mg/kg, 15 min after injection minus before
Text: (§1) TREK-1^−/− mice were generated by crossing mice carrying an allele of the Kcnk2 gene in which exon 3 was floxed (RRID:MGI:3050295) with ZP3-Cre mice (RRID:MGI:3835429), both in C57Bl6/J background. F1 females, producing TREK-1^+/− oocytes, were crossed with WT males. TREK-1^+/− F2 offspring not carrying the ZP3-Cre transgene were finally crossed together to generate TREK-1^−/− and TREK-1^+/+ littermates, which were weaned in separate cages after genotyping using 2 mm tail samples taken at 10 days of age. Animals were identified by digital tattoos at 3 weeks of age.
Body temperature was measured using a rectal probe in awake animals before and 15, 30 and 45 min after injection of LPS2336.
To search for possible adverse effects induced by LPS2336 in vivo, we submitted CD1 mice to different confounding tests aiming at characterizing motor coordination, balance, muscle strength and spontaneous locomotor activity. […] To assess the contribution of TREK-1 to this adverse effect, we submitted TREK-1 knock-out mice (which are of the C57Bl6/J background) to the same test, 15 min following the injection of 50 mg/kg LPS2336. […] Finally, we monitored the body temperature of mice for 45 min after intraperitoneal injection of LPS2336 at 40 mg/kg and could observe hypothermia in both WT and TREK-1 KO (−2.4 and −2.6 °C, respectively) following LPS2336 treatment (Figure 7F,G).

[5] = test system: WT and TREK-1 KO littermates of C57Bl6/J background; assay: Open field test in WT and TREK-1 KO littermates; type: in vivo, mouse; conditions: i.p. 50 mg/kg
Text: as §1
(§2) Mice were placed in the center of a 50 × 50 cm arena with 45 cm high walls. Animals were filmed for 10 min and the distance traveled was measured using video-tracking software (Viewpoint Videotrack 5.13.0.10).
(§3) To search for possible adverse effects induced by LPS2336 in vivo, we submitted CD1 mice to different confounding tests aiming at characterizing motor coordination, balance, muscle strength and spontaneous locomotor activity. […] Finally, we monitored the body temperature of mice for 45 min after intraperitoneal injection of LPS2336 at 40 mg/kg and could observe hypothermia in both WT and TREK-1 KO (−2.4 and −2.6 °C, respectively) following LPS2336 treatment (Figure 7F,G).

hTREK-1 [6] = target: T1, hTREK-1; assay: cell-based
[7] = test system: WT and TREK-1 KO littermates of C57Bl6/J background; assay: Horizontal bar test in WT and TREK-1 KO littermates; type: in vivo, mouse; conditions: i.p. 50 mg/kg, 15 min
Text: as §1
A 13 cm long, 2 mm diameter metal bar was placed horizontally between 2 rods at a 30 cm height. […] After gently releasing the tail, the time taken by mice to climb on the bar (grabbing it with their four paws) was monitored.
as §3

CD1 mice [8] = assay: Open field test in CD1 mice; type: in vivo, mouse; conditions: i.p., 15 min before open field test
Method: as §2
To search for possible adverse effects induced by LPS2336 in vivo, we submitted CD1 mice to different confounding tests aiming at characterizing motor coordination, balance, muscle strength and spontaneous locomotor activity. […] To assess the contribution of TREK-1 to this adverse effect, we submitted TREK-1 knock-out mice (which are of the C57Bl6/J background) to the same test, 15 min following the injection of 50 mg/kg LPS2336. […] We finally submitted the mice to a third test consisting in observing their spontaneous locomotion in an open arena (open field test). […] Finally, we monitored the body temperature of mice for 45 min after intraperitoneal injection of LPS2336 at 40 mg/kg and could observe hypothermia in both WT and TREK-1 KO (−2.4 and −2.6 °C, respectively) following LPS2336 treatment (Figure 7F,G).

[9] = 50 µM, HEK-hTREK-1 cells, vs vehicle

N#CCCN1CCC(Cc2ccccc2)CC1 [2a]
TREK-1 activation by analogs (hTREK-1 [1]): profound decrease in TREK-1 activation

CC1CCN(CC#N)CC1 [2b]
TREK-1 activation by analogs (hTREK-1 [1]): loss of TREK-1 activation

CCC#CCN1CCC(Cc2ccccc2)CC1 [2c]
TREK-1 activation by analogs (hTREK-1 [1]): profound decrease in TREK-1 activation

N#CCN1CCCCC1 [2d]
TREK-1 activation by analogs (hTREK-1 [1]): loss of TREK-1 activation

N#CCCCN1CCC(Cc2ccccc2)CC1 [2e]
TREK-1 activation by analogs (hTREK-1 [1]): profound decrease in TREK-1 activation

c1ccc(CC2CCN(Cc3ccccc3)CC2)cc1 [2f]
TREK-1 activation by analogs (hTREK-1 [1]): profound decrease in TREK-1 activation

CCCCN1CCC(Cc2ccccc2)CC1 [2g]
TREK-1 activation by analogs (hTREK-1 [1]): profound decrease in TREK-1 activation

CCOC(=O)CN1CCC(Cc2ccccc2)CC1 [2h]
TREK-1 activation by analogs (hTREK-1 [1]): severely impacted TREK-1 activation ability

O=C(O)CN1CCC(Cc2ccccc2)CC1 [2i]
TREK-1 activation by analogs (hTREK-1 [1]): severely impacted TREK-1 activation ability

NCCN1CCC(Cc2ccccc2)CC1 [2j]
TREK-1 activation by analogs (hTREK-1 [1]): severely impacted TREK-1 activation ability

NC(=O)CN1CCC(Cc2ccccc2)CC1 [2k]
TREK-1 activation by analogs (hTREK-1 [1]): severely impacted TREK-1 activation ability

c1ccc(-c2nn[nH]n2)c(Nc2cccc3c2CCCC3)c1 [BL-1249, reference compound]
concentrations at which active on TREK-1 (hTREK-1 [1]): active at sub-micromolar concentrations | toxicity to HEK-hTREK-1 cells (hTREK-1 [1]; 100 µM): visible cell death | effect on fluorescence in naive cells (naive HEK293 cells): no effect

Nc1ccc(Oc2ccc(C(c3ccc(Oc4ccc(N)cc4)cc3)(C(F)(F)F)C(F)(F)F)cc2)cc1 [GI-530159]
increase of mean current density recorded at 0 mV (hTREK-1 [2]; [9]): 9.73 fold

N#CCN1CCC(Cc2ccccc2)CC1 [LPS2336]
dose able to reverse the pain phenotype (CD1 mice [3]; intracerebroventricular, effect similar to 1 µg morphine): 100 µg | dose at which the analgesic effect reaches a plateau (CD1 mice [3]; intraperitoneal): 20 mg/kg | time of peak analgesia after injection (CD1 mice [3]; intraperitoneal): 15 min | dose from which pain thresholds are increased (CD1 mice [3]; intraperitoneal, carrageenan-injected CD1 mice): ≥ 20 mg/kg | effect on pain thresholds at the highest intrathecal dose (CD1 mice [3]; intrathecal, 300 µg (1400 nmol)): slight, non-significant effect | pain relief after intrathecal administration (CD1 mice [3]; intrathecal, doses up to 300 µg): not effective | average Z score in high throughput screening (hTREK-1 [1]): 3.50 ± 0.24 | times over the positivity threshold (hTREK-1 [1]): 3/3 | increase of mean current density recorded at 0 mV (hTREK-1 [2]): 10.77 fold | change in body temperature (hypothermia), WT mice ([4]; C57Bl6/J WT): −2.4 °C | change in body temperature (hypothermia), TREK-1 KO mice ([4]; TREK-1 KO): −2.6 °C | open field test, WT vs TREK-1 KO [5]: no difference between WT and TREK-1 KO mice | spontaneous locomotion in C57Bl6/J mice [5]: same adverse effect as CD1 mice | EC50 (hTREK-1 [6]): 11.8 µM | horizontal bar test, WT vs TREK-1 KO [7]: no difference between WT and TREK-1 KO mice | time to climb on horizontal bar in WT littermates ([7]; C57Bl6/J WT): same increase in time to climb | dose from which spontaneous locomotion is decreased (CD1 mice [8]): ≥ 30 mg/kg

O=C(NCCCCN1CCN(Cc2ccccc2)CC1)c1ccc2ccccc2c1 [LPS6257]
change in ΔFmax/F0 compared to the vehicle condition (hTREK-1 [1]): −70%

CS(=O)(=O)Nc1ccc(C(=O)NCc2ccc(Cl)cc2Cl)cc1 [ML335, reference compound]
increase in ΔFmax/F0 (hTREK-1 [1]): 2.60 fold | effect of salification on TREK-1 activation (hTREK-1 [1]; 100 µM): increased TREK-1 activation | EC50 (hTREK-1 [1]; read-out: EC50 (TREK-1 activation, thallium assay)): 6.7 µM | increase of mean current density recorded at 0 mV (hTREK-1 [2]; [9]): 13.35 fold

Cc1cc(Cl)ccc1OCCNC(=O)c1cccs1 [ML402, reference compound]
effect of salification on TREK-1 activation (hTREK-1 [1]; 100 µM): increased TREK-1 activation

CNCCC(Oc1ccc(C(F)(F)F)cc1)c1ccccc1 (centres unmarked) [fluoxetine, reference compound]
TREK-1 activation (ΔFmax/F0) (hTREK-1 [1]): 54 % of vehicle

CN1CC[C@]23c4c5ccc(O)c4O[C@H]2[C@@H](O)C=C[C@H]3[C@H]1C5 [morphine, reference compound]
analgesia after intracerebroventricular administration (CD1 mice [3]; intracerebroventricular, 1 µg (3.5 nmol)): analgesic | analgesia after intrathecal administration (CD1 mice [3]; intrathecal, 3 µg (10.5 nmol)): long-lasting analgesia
